According to patent US12441730B2, “PRMT5 inhibitors” (Merck Sharp & Dohme LLC, priority 2019, dated 2025):
pEC50: −log10 of the molar value. Where two headings read alike, the source gives them in different places.

Columns and labels:
[1] = molecular target: T1, Full-length (FL)-PRMT5-MEP50 enzyme complex (Homo sapiens, UniProt O14744); assay: PRMT5-MEP50 Enzyme Methylation Assay (Version A); assay type: biochemical
T1 construct: Full-length (FL)-PRMT5-MEP50 enzyme complex (recombinant proteins from baculovirus-transfected Sf21 cells: FL-PRMT5; MW=73837 kDa and FL-MEP50; MW=38614); made in house; host or cells: baculovirus-transfected Sf21 cells
T1 sequence (O14744 whole entry): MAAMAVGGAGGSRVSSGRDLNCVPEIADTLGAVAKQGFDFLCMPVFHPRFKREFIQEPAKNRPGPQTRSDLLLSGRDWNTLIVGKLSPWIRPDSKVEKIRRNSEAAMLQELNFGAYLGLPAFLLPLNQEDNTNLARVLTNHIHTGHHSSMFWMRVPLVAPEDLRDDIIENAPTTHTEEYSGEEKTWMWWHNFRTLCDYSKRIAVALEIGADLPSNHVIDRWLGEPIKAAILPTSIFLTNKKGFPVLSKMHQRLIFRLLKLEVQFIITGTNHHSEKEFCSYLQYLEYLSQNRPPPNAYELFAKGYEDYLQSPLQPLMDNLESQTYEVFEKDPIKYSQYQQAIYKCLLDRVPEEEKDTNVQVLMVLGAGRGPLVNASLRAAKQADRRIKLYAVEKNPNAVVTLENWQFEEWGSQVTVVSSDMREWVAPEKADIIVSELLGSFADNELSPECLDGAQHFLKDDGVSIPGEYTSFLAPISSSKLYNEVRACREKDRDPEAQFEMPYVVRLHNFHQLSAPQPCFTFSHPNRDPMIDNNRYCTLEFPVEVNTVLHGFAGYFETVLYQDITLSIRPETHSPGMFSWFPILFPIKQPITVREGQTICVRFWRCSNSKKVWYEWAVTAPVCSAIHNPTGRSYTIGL
T1 sequence (Q9BQA1 whole entry partner): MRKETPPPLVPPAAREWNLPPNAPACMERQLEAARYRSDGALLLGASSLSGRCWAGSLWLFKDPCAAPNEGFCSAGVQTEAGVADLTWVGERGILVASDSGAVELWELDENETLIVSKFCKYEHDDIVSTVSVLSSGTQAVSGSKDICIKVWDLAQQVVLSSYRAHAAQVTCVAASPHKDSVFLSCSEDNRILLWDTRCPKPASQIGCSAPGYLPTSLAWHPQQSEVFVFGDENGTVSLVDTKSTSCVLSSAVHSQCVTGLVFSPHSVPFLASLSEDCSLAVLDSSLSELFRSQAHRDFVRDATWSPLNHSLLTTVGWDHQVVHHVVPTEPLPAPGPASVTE
How it was run: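 Compound was pre-incubated with enzyme for 60 min, then reacted 150 min at 37° C. at final 1.0 nM PRMT5-MEP50, 15 μM SAM and 75 nM biotinylated H4R3(Me1) peptide, in 50 mM Bicine pH 8.0 with 1% DMSO. SAMDI mass-spectrometric readout of Me1→Me2 conversion. EC50 from 4- or 7-parameter regression.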

[2] = system: symmetric dimethylation of arginine (SDMA) of PRMT5 substrates in MCF-7 cells; assay: PRMT5 Cell Target Engagement (TE) Assay; assay type: cell-based; conditions: 3 days treatment, SDMA high content imaging
How it was run: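 MCF-7 cells treated 3 days at 37 °C with a ten-point 1:3 titration from 10000 nM. Fixed cells immunostained with anti-SDMA and Alexa488 secondary; nuclear fluorescence quantified by high-content imaging versus DMSO wells, with IC50 from a 4-parameter fit.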

[3] = second value of 7 parameter biphasic fit, read-out: Enzyme Methylation Assay Version A (EC50 2)
[4] = single EC50 = 4 parameter single site sigmoidal fit, EC50 1 = first value of 7 parameter biphasic fit, read-out: Enzyme Methylation Assay Version A (EC50 or EC50 1)

SMILES | pEC50 [1, 3] | pEC50 [1, 4] | pEC50 ([2]; Homo sapiens, MCF7, 72 h) | pEC50 [2]
CCOc1nc(C)ccc1C(=O)N1CC[C@]2(Cc3ccccc3CN2)[C@H](O)C1 [Example 200, (2-ethoxy-6-methyl-3-pyridinyl)[(3R,3′R)-3′-hydroxy-1,4-dihydro-1′H,2H-spiro[isoquinoline-3,4′-piperidin]-1′-yl]methanone] | 5.52 | 8.17 | 6.67 | 
CO[C@H](C)c1cc(CN2CCCC2)cn2cc(C(=O)N3CC[C@]4(Cc5ccccc5CN4)[C@H](O)C3)nc12 [Example 247, [(3R,3′R)-3′-hydroxy-1,4-dihydro-1′H,2H-spiro[isoquinoline-3,4′-piperidin]-1′-yl]{8-[(1R)-1-methoxyethyl]-6-(1-pyrrolidinylmethyl)imidazo[1,2-a]pyridin-2-yl}methanone] | 6.19 | 9.18 | 7.12 | 
COC(C)c1cc(C)c2nc(C(=O)N3CC[C@]4(Cc5ccccc5CN4)[C@H](O)C3)cn2c1 (single isomer, unassigned) [Example 122] | 6.84 | 9.52 |  | 8.26
Cc1c(Br)cnc2ncc(C(=O)N3CC[C@]4(Cc5ccccc5CN4)[C@H](O)C3)n12 [Example 141, (6-bromo-5-methylimidazo[1,2-a]pyrimidin-3-yl)[(3R,3′R)-3′-hydroxy-1,4-dihydro-1′H,2H-spiro[isoquinoline-3,4′-piperidin]-1′-yl]methanone] | 5.43 | 6.99 | 5.36 | 
Cc1ccn2cc(C(=O)N3CC[C@]4(Cc5ccccc5CN4)[C@H](O)C3)nc2n1 [Example 111, [(3R,3′R)-3′-hydroxy-1,4-dihydro-1′H,2H-spiro[isoquinoline-3,4′-piperidin]-1′-yl](7-methylimidazo[1,2-a]pyrimidin-2-yl)methanone] | 4.45 | 7.38 | 5.57 | 
CN1CC(C2CC2)Cn2cc(C(=O)N3CC[C@]4(Cc5ccccc5CN4)[C@H](O)C3)nc21 (single isomer, unassigned) [Example 142] | 5.73 | 7.53 |  | 6.21
CO[C@H](C)c1cc(N2CC3(CCCO3)C2)cn2cc(C(=O)N3CC[C@]4(Cc5ccccc5CN4)[C@H](O)C3)nc12 [Example 236, [(3R,3′R)-3′-hydroxy-1,4-dihydro-1′H,2H-spiro[isoquinoline-3,4′-piperidin]-1′-yl]{8-[(1R)-1-methoxyethyl]-6-(5-oxa-2-azaspiro[3.4]oct-2-yl)imidazo[1,2-a]pyridin-2-yl}methanone] |  | 8.15 | 7.69 | 
O=C(c1cc2ncc(C(F)(F)F)cn2n1)N1CC[C@]2(Cc3ccccc3CN2)[C@H](O)C1 [Example 73, [(3R,3′R)-3′-hydroxy-1,4-dihydro-1′H,2H-spiro[isoquinoline-3,4′-piperidin]-1′-yl][6-(trifluoromethyl)pyrazolo[1,5-a]pyrimidin-2-yl]methanone] | 6.46 | 8.35 | 6.47 | 
N#CCCc1cc(C(F)(F)F)cn2cc(C(=O)N3CC[C@]4(Cc5ccccc5CN4)[C@H](O)C3)nc12 [Example 34, 3-(2-((3R,3’R)-3′-hydroxy-1,4-dihydro-2H-spiro[isoquinoline-3,4′-piperidine]-1′-carbonyl)-6-(trifluoromethyl)imidazo[1,2-a]pyridin-8-yl)propanenitrile] | 6.64 | 9.04 | 8.40 | 
O=C(c1cn(-c2ccc(F)cc2)cn1)N1CC[C@]2(Cc3ccccc3CN2)[C@H](O)C1 [Example 212, [1-(4-fluorophenyl)-1H-imidazol-4-yl][(3R,3′R)-3′-hydroxy-1,4-dihydro-1′H,2H-spiro[isoquinoline-3,4′-piperidin]-1′-yl]methanone] | 4.67 | 6.04 | 5.51 | 
Cc1cn2cc(C(=O)N3CC[C@]4(Cc5ccccc5CN4)[C@H](O)C3)nc2s1 [Example 223, [(3R,3′R)-3′-hydroxy-1,4-dihydro-1′H,2H-spiro[isoquinoline-3,4′-piperidin]-1′-yl](2-methylimidazo[2,1-b][1,3]thiazol-6-yl)methanone] | 6.20 | 7.66 | 6.35 | 
O=C(c1cn2cc(C(F)(F)F)cc(Cl)c2n1)N1CC[C@]2(Cc3ccccc3CN2)[C@H](O)C1 [Example 211, [8-chloro-6-(trifluoromethyl)imidazo[1,2-a]pyridin-2-yl][(3R,3′R)-3′-hydroxy-1,4-dihydro-1′H,2H-spiro[isoquinoline-3,4′-piperidin]-1′-yl]methanone] | 7.15 | 9.72 | 8.10 | 
O=C(c1nc2cc(Cl)ccn2n1)N1CC[C@]2(Cc3ccccc3CN2)[C@H](O)C1 [Example 18] | 4.24 | 7.20 | 5.99 | 
CO[C@H](C)c1cc(-c2ccnn2C)cn2cc(C(=O)N3CC[C@]4(Cc5ccccc5CN4)[C@H](O)C3)nc12 [Example 242, [(3R,3′R)-3′-hydroxy-1,4-dihydro-1′H,2H-spiro[isoquinoline-3,4′-piperidin]-1′-yl]{8-[(1R)-1-methoxyethyl]-6-(1-methyl-1H-pyrazol-5-yl)imidazo[1,2-a]pyridin-2-yl}methanone] |  | 9.15 | 8.74 | 
CC(C#N)c1cnc2nc(C(=O)N3CC[C@]4(Cc5ccccc5CN4)[C@H](O)C3)cn2c1 (stereo partly drawn) [Example 133, 2-(2-{[(3R,3′R)-3′-hydroxy-1,4-dihydro-1′H,2H-spiro[isoquinoline-3,4′-piperidin]-1′-yl]carbonyl}imidazo[1,2-a]pyrimidin-6-yl)propanenitrile] | 7.79 | 8.42 | 7.11 | 

More lines, now with the values ahead:

pEC50 [1, 3] | pEC50 [1, 4] | pEC50 ([2]; Homo sapiens, MCF7, 72 h) | pEC50 [2] | SMILES
7.25 | 9.53 |  | 8.15 | O=C(c1cn2cc(Br)nc(OCC3CCCO3)c2n1)N1CC[C@]2(Cc3ccccc3CN2)[C@H](O)C1 (single isomer, unassigned) [Example 101, (6-bromo-8-(((S or R)-tetrahydrofuran-2-yl)methoxy)imidazo[1,2-a]pyrazin-2-yl)((3R,3′R)-3′-hydroxy-1,4-dihydro-2H-spiro[isoquinoline-3,4′-piperidin]-1′-yl)methanone]
6.54 | 9.42 | 7.56 |  | Cc1cc(Cl)c2nc(C(=O)N3CC[C@]4(Cc5ccccc5CN4)[C@H](O)C3)cn2c1 [Example 207, (8-chloro-6-methylimidazo[1,2-a]pyridin-2-yl)[(3R,3′R)-3′-hydroxy-1,4-dihydro-1′H,2H-spiro[isoquinoline-3,4′-piperidin]-1′-yl]methanone]
6.98 | 9.72 | 8.16 |  | O=C(c1cn2cc(Br)nc(OC3CCOC3)c2n1)N1CC[C@]2(Cc3ccccc3CN2)[C@H](O)C1 (single isomer, unassigned) [Example 98, (6-bromo-8-(((S or R)(tetrahydrofuran-3-yl)oxy)imidazo[1,2-a]pyrazin-2-yl)((3R,3′R)-3′-hydroxy-1,4-dihydro-2H-spiro[isoquinoline-3,4′-piperidin]-1′-yl)methanone]
6.74 | 9.09 | 8.38 |  | CCOc1nc(Br)cn2cc(C(=O)N3CC[C@]4(Cc5ccccc5CN4)[C@H](O)C3)nc12 [Example 10]
 | 7.97 | 8.16 |  | O=C(c1cn2cc(Br)c(C3CC3)nc2n1)N1CC[C@]2(Cc3ccccc3CN2)[C@H](O)C1 [Example 135, (6-bromo-7-cyclopropylimidazo[1,2-a]pyrimidin-2-yl)[(3R,3′R)-3′-hydroxy-1,4-dihydro-1′H,2H-spiro[isoquinoline-3,4′-piperidin]-1′-yl]methanone]
4.13 | 7.15 | ≤ 5.00 |  | Cc1cn2cc(C(=O)N3CC[C@]4(Cc5ccccc5CN4)[C@H](O)C3)nc2nc1O [Example 131, 2-{[(3R,3′R)-3′-hydroxy-1,4-dihydro-1′H,2H-spiro[isoquinoline-3,4′-piperidin]-1′-yl]carbonyl}-6-methylimidazo[1,2-a]pyrimidin-7(1H)-one]
6.82 | 9.25 | 8.03 |  | COc1nc2nc(C(=O)N3CC[C@]4(Cc5ccccc5CN4)[C@H](O)C3)cn2cc1Br (single isomer, unassigned) [Example 248]
7.32 | 8.95 | 8.05 |  | O=C(c1cn2cc(Cl)cc(Cl)c2n1)N1CC[C@]2(Cc3ccccc3CN2)[C@H](O)C1 [Example 214, (6,8-dichloroimidazo[1,2-a]pyridin-2-yl)[(3R,3′R)-3′-hydroxy-1,4-dihydro-1′H,2H-spiro[isoquinoline-3,4′-piperidin]-1′-yl]methanone]
5.53 | 8.31 | 6.61 |  | CC(C)(O)c1cc(Br)cn2cc(C(=O)N3CCC4(Cc5ccccc5CN4)C(O)C3)nc12 (stereo not drawn) [Example 48, A diastereomer of [6-bromo-8-(2-hydroxy-2-propanyl)imidazo[1,2-a]pyridin-2-yl](3′-hydroxy-1,4-dihydro-1′H,2H-spiro[isoquinoline-3,4′-piperidin]-1′-yl)methanone]
